Test results: patent publication US8247211B2, “Glycopeptide antibiotics” (American Cyanamid Company, priority 2001, dated 2012)
In brackets after ≈: the same amount, converted by molar mass.

Assays:
Assay in all cases: In vitro antibacterial evaluation: minimum inhibitory concentration (MIC), broth dilution method
Format in all cases: cell-based
[1] = system: Streptococcus sp.
Method in brief: (§1)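 Following NCCLS approved standard M7-A2, compounds are serially diluted from 64 to 0.06 μg/mL in Muller-Hinton II […] and inoculated at 5×10^5 CFU/mL; the MIC is the minimum concentration at which growth is inhibited.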

[2] = system: Staphylococcus sp.; details: for MIC Staphylococcus aureus-SMITH (GC 4543): strain GC 4543; for MIC Staphylococcus haemolyticus (GC 4546): strain GC 4546; for MIC Coagulase Negative Staphylococcus (GC 4547): strain GC 4547; for MIC Coagulase Negative Staphylococcus (GC 4548): strain GC 4548; for MIC Coagulase Negative Staphylococcus (GC 4549): strain GC 4549; for MIC Coagulase Negative Staphylococcus (GC 4551): strain GC 4551; for MIC Coagulase Negative Staphylococcus (ID-3941): strain ID-3941
Method in brief: as §1

[3] = system: Escherichia coli
Method in brief: as §1

[4] = system: Enterococcus sp.
Method in brief: as §1

[5] = broth dilution, inoculum 5×10^5 CFU/mL, 18 hours at 35° C.
[6] = broth dilution, 5×10^5 CFU/mL, 18 hours at 35° C.
[7] = strain ATCC 29213, broth dilution, 18 hours at 35° C.
[8] = strain GC 1131, broth dilution, 18 hours at 35° C.
[9] = strain GC 4541, broth dilution, 18 hours at 35° C.
[10] = strain GC 4542, broth dilution, 18 hours at 35° C.
[11] = strain GC 4544, broth dilution, 18 hours at 35° C.
[12] = strain GC 4545, broth dilution, 18 hours at 35° C.
[13] = broth dilution, 18 hours at 35° C.

CC(c1ccccc1)C1NC(=O)CNC(=O)C(CO)NC(=O)C(C(O)C2CNC(=N)N2C2OC(CO)C(O)C(O)C2O)NC(=O)C(C(O)C2CNC(=N)N2)NC(=O)C(Cc2ccc(OC3OC(CO)C(OC4OC5COC(c6cccc(OCc7ccc([N+](=O)[O-])cc7)c6)OC5C(O)C4O)C(O)C3O)cc2)NC1=O (stereo not drawn) [Example 182, Cyclo[glycyl-β-methylphenylalanyl-O-[4-O-[4,6-O-(3-[[(4-nitrophenyl)methoxy]benzylidene]hexopyranosyl]hexopyranosyl]tyrosyl-3-(2-iminoimidazolidin-4-yl)seryl-3-β-hexopyranosyl-2-iminoimidazolidin-4-yl)serylseryl]]
MIC Streptococcus agalactiae (GC 4564) [1, 5]: 32 µg/mL (≈ 20.9 µM)
MIC Streptococcus pneumoniae (ATCC 6301) [1, 5]: 4 µg/mL (≈ 2.61 µM)
MIC Streptococcus pneumoniae (GC 1894) [1, 5]: 8 µg/mL (≈ 5.21 µM)
MIC Streptococcus pneumoniae (GC 4565) [1, 5]: 8 µg/mL (≈ 5.21 µM)
MIC Streptococcus pyogenes (GC 4563) [1, 5]: 64 µg/mL (≈ 41.7 µM)
MIC Streptococcus pneumoniae (ATCC 6301) ([1]; strain ATCC 6301): 4 µg/mL (≈ 2.61 µM)
MIC Streptococcus pneumoniae (GC 1894) ([1]; strain GC 1894): 8 µg/mL (≈ 5.21 µM)
MIC Streptococcus pyogenes (GC 4563) ([1]; strain GC 4563): 64 µg/mL (≈ 41.7 µM)
MIC Streptococcus agalactiae (GC 4564) ([1]; strain GC 4564): 32 µg/mL (≈ 20.9 µM)
MIC Streptococcus pneumoniae (GC 4565) ([1]; strain GC 4565): 8 µg/mL (≈ 5.21 µM)
MIC Staphylococcus aureus (ATCC 29213) [2, 6]: >64 µg/mL
MIC Staphylococcus aureus (GC 1131) [2, 6]: >64 µg/mL
MIC Staphylococcus aureus (GC 3051) [2, 6]: >64 µg/mL
MIC Staphylococcus aureus (GC 3053) [2, 6]: >64 µg/mL
MIC Staphylococcus aureus (GC 4541) [2, 6]: >64 µg/mL
MIC Staphylococcus aureus (GC 4542) [2, 6]: >64 µg/mL
MIC Staphylococcus aureus (GC 4544) [2, 6]: >64 µg/mL
MIC Staphylococcus aureus (GC 4545) [2, 6]: >64 µg/mL
MIC Staphylococcus aureus (ATCC 29213) [2, 7]: >64 µg/mL
MIC Staphylococcus aureus (GC 1131) [2, 8]: >64 µg/mL
MIC Staphylococcus aureus (GC 3051) ([2]; strain GC 3051, broth dilution, 18 hours at 35° C.): >64 µg/mL
MIC Staphylococcus aureus (GC 3053) ([2]; strain GC 3053, broth dilution, 18 hours at 35° C.): >64 µg/mL
MIC Staphylococcus aureus (GC 4541) [2, 9]: >64 µg/mL
MIC Staphylococcus aureus (GC 4542) [2, 10]: >64 µg/mL
MIC Staphylococcus aureus-SMITH (GC 4543) [2]: >64 µg/mL
MIC Staphylococcus aureus (GC 4544) [2, 11]: >64 µg/mL
MIC Staphylococcus aureus (GC 4545) [2, 12]: >64 µg/mL
MIC Staphylococcus haemolyticus (GC 4546) [2]: >64 µg/mL
MIC Coagulase Negative Staphylococcus (GC 4547) [2]: >64 µg/mL
MIC Coagulase Negative Staphylococcus (GC 4548) [2]: >64 µg/mL
MIC Coagulase Negative Staphylococcus (GC 4549) [2]: >64 µg/mL
MIC Coagulase Negative Staphylococcus (GC 4551) [2]: >64 µg/mL
MIC Coagulase Negative Staphylococcus (GC 6257) ([2]; strain GC 6257): >64 µg/mL
MIC Escherichia coli (ATCC 25922) ([3]; strain ATCC 25922): >64 µg/mL
MIC Escherichia coli (GC 4559) ([3]; strain GC 4559): >64 µg/mL
MIC Escherichi coli (GC 4560) ([3]; strain GC 4560): >64 µg/mL
MIC Enterococcus avium (GC 4558) [4, 5]: >64 µg/mL
MIC Enterococcus faecalis (ATCC 29212) [4, 5]: >64 µg/mL
MIC Enterococcus faecalis (GC 2242) [4, 5]: >64 µg/mL
MIC Enterococcus faecalis (GC 2691) [4, 5]: >64 µg/mL
MIC Enterococcus faecalis (GC 3059) [4, 5]: >64 µg/mL
MIC Enterococcus faecalis (GC 4552) [4, 5]: >64 µg/mL
MIC Enterococcus faecalis (GC 4553) [4, 5]: >64 µg/mL
MIC Enterococcus faecalis (GC 4554) [4, 5]: >64 µg/mL
MIC Enterococcus faecalis (GC 6189) [4, 5]: >64 µg/mL
MIC Enterococcus faecium (GC 2243) [4, 5]: >64 µg/mL
MIC Enterococcus faecium (GC 4556) [4, 5]: >64 µg/mL
MIC Enterococcus faecium (GC 4557) [4, 5]: >64 µg/mL
MIC Enterococcus faecalis (ATCC 29212) ([4]; strain ATCC 29212): >64 µg/mL
MIC Enterococcus faecalis (GC 2242) ([4]; strain GC 2242): >64 µg/mL
MIC Enterococcus faecium (GC 2243) ([4]; strain GC 2243): >64 µg/mL
MIC Enterococcus faecalis (GC 2691) ([4]; strain GC 2691): >64 µg/mL
MIC Enterococcus faecalis (GC 3059) ([4]; strain GC 3059): >64 µg/mL
MIC Enterococcus faecalis (GC 4552) ([4]; strain GC 4552): >64 µg/mL
MIC Enterococcus faecalis (GC 4553) ([4]; strain GC 4553): >64 µg/mL
MIC Enterococcus faecalis (GC 4554) ([4]; strain GC 4554): >64 µg/mL
MIC Enterococcus faecium (GC 4556) ([4]; strain GC 4556): >64 µg/mL
MIC Enterococcus faecium (GC 4557) ([4]; strain GC 4557): >64 µg/mL
MIC Enterococcus avium (GC 4558) ([4]; strain GC 4558): >64 µg/mL
MIC Enterococcus faecalis (GC 6189) ([4]; strain GC 6189): >64 µg/mL

CCCCCCCC1OCC2OC(OC3C(CO)OC(Oc4ccc(CC5NC(=O)C(C(C)c6ccccc6)NC(=O)CNC(=O)C(CO)NC(=O)C(C(O)C6CNC(=N)N6C6OC(CO)C(O)C(O)C6O)NC(=O)C(C(O)C6CNC(=N)N6)NC5=O)cc4)C(O)C3O)C(O)C(O)C2O1 (stereo not drawn) [Example 109, Cyclo[glycyl-β-methylphenylalanyl-O-[4-O-(4,6-O-octylidenehexopyranosyl)hexopyranosyl]-tyrosyl-3-(2-iminoimidazoliclin-4-yl)seryl-3-(3-hexopyranosyl-2-iminoimidazolidin-4-yl)-serylseryl]]
MIC Streptococcus agalactiae (GC 4564) [1, 6]: <0.5 µg/mL
MIC Streptococcus pneumoniae (GC 4565) [1, 6]: <0.5 µg/mL
MIC Streptococcus pyogenes (ID-3187) [1, 6]: <0.5 µg/mL
MIC Staphylococcus aureus (ATCC 29213) ([2]; strain ATCC 29213): 1 µg/mL (≈ 0.712 µM)
MIC Staphylococcus aureus (ATCC 29213) [2, 7]: 1 µg/mL (≈ 0.712 µM)
MIC Staphylococcus aureus (GC 1131) ([2]; strain GC 1131): 1 µg/mL (≈ 0.712 µM)
MIC Staphylococcus aureus (GC 1131) [2, 8]: 1 µg/mL (≈ 0.712 µM)
MIC Staphylococcus aureus (GC 4541) ([2]; strain GC 4541): 1 µg/mL (≈ 0.712 µM)
MIC Staphylococcus aureus (GC 4541) [2, 9]: 1 µg/mL (≈ 0.712 µM)
MIC Staphylococcus aureus (GC 4542) ([2]; strain GC 4542): 1 µg/mL (≈ 0.712 µM)
MIC Staphylococcus aureus (GC 4542) [2, 10]: 1 µg/mL (≈ 0.712 µM)
MIC Staphylococcus aureus-SMITH (GC 4543) ([2]; 18 hours at 35° C.): 1 µg/mL (≈ 0.712 µM)
MIC Staphylococcus aureus-SMITH (GC 4543) [2, 13]: 1 µg/mL (≈ 0.712 µM)
MIC Staphylococcus aureus (GC 4544) ([2]; strain GC 4544): 1 µg/mL (≈ 0.712 µM)
MIC Staphylococcus aureus (GC 4544) [2, 11]: 1 µg/mL (≈ 0.712 µM)
MIC Staphylococcus aureus (GC 4545) ([2]; strain GC 4545): 1 µg/mL (≈ 0.712 µM)
MIC Staphylococcus aureus (GC 4545) [2, 12]: 1 µg/mL (≈ 0.712 µM)
MIC Staphylococcus haemolyticus (GC 4546) [2]: 1 µg/mL (≈ 0.712 µM)
MIC Staphylococcus haemolyticus (GC 4546) [2, 13]: 1 µg/mL (≈ 0.712 µM)
MIC Coagulase Negative Staphylococcus (GC 4547) [2]: 1 µg/mL (≈ 0.712 µM)
MIC Coagulase Negative Staphylococcus (GC 4547) [2, 13]: 1 µg/mL (≈ 0.712 µM)
MIC Coagulase Negative Staphylococcus (GC 4548) [2]: <0.5 µg/mL
MIC Coagulase Negative Staphylococcus (GC 4548) [2, 13]: <0.5 µg/mL
MIC Coagulase Negative Staphylococcus (GC 4549) [2]: 1 µg/mL (≈ 0.712 µM)
MIC Coagulase Negative Staphylococcus (GC 4549) [2, 13]: 1 µg/mL (≈ 0.712 µM)
MIC Coagulase Negative Staphylococcus (GC 4551) [2]: 1 µg/mL (≈ 0.712 µM)
MIC Coagulase Negative Staphylococcus (GC 4551) [2, 13]: 1 µg/mL (≈ 0.712 µM)
MIC Coagulase Negative Staphylococcus (ID-3941) [2]: 1 µg/mL (≈ 0.712 µM)
MIC Coagulase Negative Staphylococcus (ID-3941) [2, 13]: 1 µg/mL (≈ 0.712 µM)
MIC Escherichia coli (ATCC 25922) ([3]; 5×10^5 CFU/mL, 18 hours at 35° C.): 16 µg/mL (≈ 11.4 µM)
MIC Enterococccus avium (GC 4558) [4, 6]: 2 µg/mL (≈ 1.42 µM)
MIC Enterococccus faecalis (ATCC 29212) [4, 6]: 2 µg/mL (≈ 1.42 µM)
MIC Enterococccus faecalis (GC 4552) [4, 6]: 2 µg/mL (≈ 1.42 µM)
MIC Enterococccus faecalis (GC 4553) [4, 6]: 2 µg/mL (≈ 1.42 µM)
MIC Enterococccus faecalis (GC 4554) [4, 6]: 2 µg/mL (≈ 1.42 µM)
MIC Enterococccus faecium (GC 2243) [4, 6]: 1 µg/mL (≈ 0.712 µM)
MIC Enterococccus faecium (GC 4556) [4, 6]: 2 µg/mL (≈ 1.42 µM)
MIC Enterococccus faecium (GC 4557) [4, 6]: 1 µg/mL (≈ 0.712 µM)
MIC Enterococcus faecalis (GC 2242) [4, 6]: 2 µg/mL (≈ 1.42 µM)
